Patent publication US20250206724A1, “SUBSTITUTED 3-AMINO INDAZOLE DERIVATIVES AS KINASE INHIBITORS” (NERVIANO MEDICAL SCIENCES S.R.L., priority 2022, published 2025)
Where a name gives a salt, the structure may show the parent alone. Read-outs that look alike come from different tables or passages of the source.

Tests used:
EoL-1-cell = test: Cytotoxicity assay (CellTiterGlo, 72 hours treatment), EoL-1; format: cell-based, Human; settings: Homo sapiens, ATP determination, read-out: Cell line IC50 EoL-1-cell
Procedure: (§1) Cell Lines and Cell Cultures
(§2) All cell lines were seeded at a density ranging from 2,400 to 8,000 cells/well in 384-well cell culture microplates and incubated at […] in a humidified 5% […] atmosphere 24 hours before treatment. Compound solutions were directly administered to the cells using the D300e digital dispenser (Tecan) to obtain scalar final concentrations ranging from 5 nM to 10 μM (duplicate wells for each point), with 80 uL final volume per well. The final DMSO concentration in test wells was adjusted to 0.1% (v/v); control wells were mock-treated and contained the same final concentration of DMSO.
(§3) Cell viability was determined after 72 hours treatment by ATP determination in each test well with a luciferase-based detection system (CellTiterGlo, Promega, Madison, WI, USA), following manufacturer's instructions. The intensity of emitted light was measured using an EnVision reader (PerkinElmer, Waltham, MA USA) and expressed as RLU. One to three independent experiments were performed for each cell line, as indicated.
(§4) Analysis of Antiproliferative Data
(§5) Cell growth inhibitory activity was evaluated comparing treated versus control data using the Assay Explorer software suite (Symix Technologies Inc.). IC50s values were calculated by sigmoidal fitting interpolation using the following quadriparametric Hill equation: […]
(§6) The Top, Bottom and Hill slope parameters were left free to assume any value, but only curves whose Hill slope had values between 0.5 and 4 were arbitrarily considered acceptable and used to calculate the average IC50s. Curves too steep (HillSlope≥4) or too slight (HillSlope≤0.5) were not included (Table C).

MOLM-13 = test: Cytotoxicity assay (CellTiterGlo, 72 hours treatment), MOLM-13; format: cell-based, Human; settings: Homo sapiens, MOLM-13 acute myeloid leukemia cells, ATP determination, read-out: Cell line IC50 MOLM-13
Procedure: as §1, §2, §3, §4, §5, §6

NB-4 = test: Cytotoxicity assay (CellTiterGlo, 72 hours treatment), NB-4; format: cell-based, Human; settings: Homo sapiens, NB-4 acute myeloid leukemia cells, ATP determination, read-out: Cell line IC50 NB-4
Procedure: as §1, §2, §3, §4, §5, §6

CDK11A = biological target: T1, CDK11A (Homo sapiens, UniProt Q9UQ88); settings: displacement of SNS-032-Atto590 probe (0.002 μM) from CDK11A-p58 (0.032 uM), fluorescence polarization;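 further: compound preincubated 30 min with CDK11A-p58, then probe added and polarization (mP) read 15 min later, 0% displacement is probe plus enzyme, 100% is probe alone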
T1 sequence (Q9UQ88 346-783): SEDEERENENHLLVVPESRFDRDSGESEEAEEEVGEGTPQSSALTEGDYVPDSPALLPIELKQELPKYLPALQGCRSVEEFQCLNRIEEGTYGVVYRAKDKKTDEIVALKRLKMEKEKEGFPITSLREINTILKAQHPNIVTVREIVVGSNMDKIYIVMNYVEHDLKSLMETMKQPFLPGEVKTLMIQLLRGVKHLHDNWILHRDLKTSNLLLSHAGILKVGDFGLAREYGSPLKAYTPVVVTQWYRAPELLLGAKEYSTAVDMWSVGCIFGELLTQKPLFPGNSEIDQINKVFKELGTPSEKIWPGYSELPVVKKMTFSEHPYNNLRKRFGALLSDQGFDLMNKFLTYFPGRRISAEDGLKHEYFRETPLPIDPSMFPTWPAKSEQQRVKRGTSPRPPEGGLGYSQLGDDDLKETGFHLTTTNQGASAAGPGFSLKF
Procedure: Biochemical Kinase Inhibition Assay on CDK11 in Displacement Assay Format
Displacement Assay Format
Fluorescence Polarization (FP) experiments were carried out at room temperature using no-binding black 384-well microplates (Corning, NY), in 50 mM Tris HCl, pH 8, 10 mM MgCl2, 1 mM DTT, 1 mM CHAPS in a final volume of 60 μl. The plate reader was the Pherastar microplate reader (BMG). Polarization values were read using excitation and emission wavelengths of 590 and 675 nm, respectively. All FP values are expressed as mP units.
Compounds were 4-folds serially diluted in 100% DMSO and added directly to the CDK11A-p58 solution using the pin tool (V & P Scientific): 0.2 ul of the different compound concentrations in 20 ul of enzyme solution. After an incubation of 30 minutes at r.t., 40 ul of probe solution were added. […] The Pherastar reading is performed after 15 minutes of all components incubation. For each assay, high controls (equivalent to 0% displacement) contain probe, CDK11A-p58, and 0.33% DMSO, whereas low controls (equivalent to 100% displacement) contain only probe and 0.33% DMSO. Controls are used for the Z′ and signal to background evaluation.
The data per each molecule are analyzed by Prism SW or an internally customized version of the SW package “Assay Explorer” which provides sigmoidal fittings of the ten-dilution curves for DC50 determination using a 4 parameters logistic equation:
where x is the logarithm of the inhibitor concentration, y is the response; y starts at bottom and goes to top with a sigmoid shape.

[1] = EOL1, 72 h, EoL-1 acute myeloid leukemia cells

Row | SMILES | DC50 (CDK11A) [nM] | IC50 (EoL-1-cell; [1]) [nM] | IC50 (MOLM-13; MOLM-13, 72 h) [nM] | IC50 (NB-4; NB-4, 72 h) [nM] | IC50 (EoL-1-cell; EOL1, EoL-1 acute myeloid leukemia cells) [nM] | IC50 (MOLM-13) [nM] | IC50 (NB-4) [nM]
1 | CCNC1CC(C(=O)Nc2n[nH]c3ccc(-c4cc(C#N)ccc4Cl)cc23)C1 (stereo not drawn) [compound 152, N-[5-(2-Chloro-5-cyanophenyl)-1H-indazol-3-yl]-3-(ethylamino)cyclobutanecarboxamide hydrochloride] | 31 | 191 | 203 | 226 | – | – | –
2 | CNC1CC(C(=O)Nc2n[nH]c3ccc(-c4c(Cl)cccc4Cl)cc23)C1 (stereo not drawn) [compound 145, N-[5-(2,6-Dichlorophenyl)-1H-indazol-3-yl]-3-(methylamino)cyclobutanecarboxamide hydrochloride] | 44 | 663 | 483 | 520 | – | – | –
3 | O=C(Nc1n[nH]c2ccc(-c3c(Cl)cccc3Cl)cc12)[C@@H]1CCCNC1 [compound 169, (3R)-N-[5-(2,6-Dichlorophenyl)-1H-indazol-3-yl]piperidine-3-carboxamide hydrochloride] | 21 | 281 | 219 | 317 | – | – | –
4 | O=C(Nc1n[nH]c2ccc(-c3c(Cl)cccc3Cl)cc12)C1CCCNC1 (stereo not drawn) [compound 157, N-[5-(2,6-Dichlorophenyl)-1H-indazol-3-yl]piperidine-3-carboxamide hydrochloride] | 59 | 590 | 521 | 512 | – | – | –
5 | N#Cc1ccc(Cl)c(-c2ccc3[nH]nc(NC(=O)C4CCCNC4)c3c2)c1 (stereo not drawn) [compound 171, N-[5-(2-Chloro-5-cyanophenyl)-1H-indazol-3-yl]piperidine-3-carboxamide hydrochloride] | 28 | 332 | 520 | 416 | – | – | –
6 | O=C(Nc1n[nH]c2ccc(-c3cc([N+](=O)[O-])ccc3Cl)cc12)[C@@H]1CCCNC1 [cpd 26, (3R)-N-[5-(2-Chloro-5-nitrophenyl)-1H-indazol-3-yl]piperidine-3-carboxamide hydrochloride] | 23 | – | – | – | 126 | 154 | 141
7 | O=C(Nc1n[nH]c2ccc(-c3c(F)cccc3Cl)cc12)C1CCCNC1 (stereo not drawn) [compound 165, N-[5-(2-Chloro-6-fluorophenyl)-1H-indazol-3-yl]piperidine-3-carboxamide hydrochloride] | 36 | 484 | 463 | 629 | – | – | –
8 | N#Cc1ccc(Cl)c(-c2ccc3[nH]nc(NC(=O)[C@@H]4CCCNC4)c3c2)c1 [compound 174, (3R)-N-[5-(2-Chloro-5-cyanophenyl)-1H-indazol-3-yl]piperidine-3-carboxamide hydrochloride] | 23 | 165 | 190 | 171 | – | – | –
9 | O=C(Nc1n[nH]c2ccc(-c3c(Cl)cccc3Cl)cc12)[C@@H]1CCNC1 [compound 167, (3R)-N-[5-(2,6-Dichlorophenyl)-1H-indazol-3-yl]pyrrolidine-3-carboxamide hydrochloride] | 27 | 651 | 610 | 525 | – | – | –

More lines, main results first:

Row | DC50 (CDK11A) [nM] | SMILES | IC50 (EoL-1-cell; [1]) [nM] | IC50 (MOLM-13; MOLM-13, 72 h) [nM] | IC50 (NB-4; NB-4, 72 h) [nM] | IC50 (EoL-1-cell; EOL1, EoL-1 acute myeloid leukemia cells) [nM] | IC50 (MOLM-13) [nM] | IC50 (NB-4) [nM]
10 | 21 | C[C@@H]1CC[C@@H](C(=O)Nc2n[nH]c3ccc(-c4cc(C#N)ccc4Cl)cc23)CN1 [compound 179, (3R,6R)-N-[5-(2-Chloro-5-cyanophenyl)-1H-indazol-3-yl]-6-methylpiperidine-3-carboxamide trifluoroacetate] | 259 | 414 | 335 | – | – | –
11 | 23 | Cc1ccc(F)c(-c2ccc3[nH]nc(NC(=O)[C@@H]4CCCNC4)c3c2)c1 [cpd 32, (3R)-N-[5-(2-Fluoro-5-methylphenyl)-1H-indazol-3-yl]piperidine-3-carboxamide hydrochloride] | 2040 | 1510 | 2480 | – | – | –
12 | 43 | Cc1ccc(C#N)cc1-c1ccc2[nH]nc(NC(=O)[C@@H]3CCCNC3)c2c1 [cpd 24, (3R)-N-[5-(5-Cyano-2-methylphenyl)-1H-indazol-3-yl]piperidine-3-carboxamide hydrochloride] | 423 | 563 | 595 | – | – | –
13 | 19 | CC(=O)c1ccc(Cl)c(-c2ccc3[nH]nc(NC(=O)[C@@H]4CCCNC4)c3c2)c1 [cpd 33, (3R)-N-[5-(5-Acetyl-2-chlorophenyl)-1H-indazol-3-yl]piperidine-3-carboxamide hydrochloride] | 1380 | 1350 | 1560 | – | – | –
14 | 23 | N#Cc1ccc(Cl)c(-c2ccc3[nH]nc(NC(=O)[C@@H]4CCC5(CCCCC5)NC4)c3c2)c1 (single isomer, unassigned) [compound 206, (3+)-N-[5-(2-Chloro-5-cyanophenyl)-1H-indazol-3-yl]-1-azaspiro[5.5]undecane-3-carboxamide] | 180 | 194 | 205 | – | – | –
15 | 18 | N#Cc1ccc(Cl)c(-c2ccc3[nH]nc(NC(=O)[C@@H]4CCNC4)c3c2)c1 [compound 176, (3R)-N-[5-(2-Chloro-5-cyanophenyl)-1H-indazol-3-yl]pyrrolidine-3-carboxamide hydrochloride] | 425 | 505 | 384 | – | – | –
16 | 65 | N#Cc1ccc(Cl)c(-c2ccc3[nH]nc(NC(=O)C4CCC5(CCCCC5)NC4)c3c2)c1 (stereo not drawn) [compound 186, N-[5-(2-Chloro-5-cyanophenyl)-1H-indazol-3-yl]-1-azaspiro[5.5]undecane-3-carboxamide hydrochloride] | 315 | 303 | 365 | – | – | –
17 | 21 | N#Cc1ccc(Cl)c(-c2ccc3[nH]nc(NC(=O)C4CCC5(CCCC5)NC4)c3c2)c1 (stereo not drawn) [compound 185, N-[5-(2-Chloro-5-cyanophenyl)-1H-indazol-3-yl]-6-azaspiro[4.5]decane-8-carboxamide hydrochloride] | 294 | 261 | 204 | – | – | –
18 | 31 | N#Cc1ccc(F)c(-c2ccc3[nH]nc(NC(=O)[C@@H]4CCCNC4)c3c2)c1 [cpd 25, (3R)-N-[5-(5-Cyano-2-fluorophenyl)-1H-indazol-3-yl]piperidine-3-carboxamide hydrochloride] | 1720 | 2860 | 1660 | – | – | –
19 | 29 | CC1(C)CCC(C(=O)Nc2n[nH]c3ccc(-c4cc(C#N)ccc4Cl)cc23)CN1 (stereo not drawn) [compound 184, N-[5-(2-Chloro-5-cyanophenyl)-1H-indazol-3-yl]-6,6-dimethylpiperidine-3-carboxamide hydrochloride] | 160 | 164 | 151 | – | – | –
20 | 45 | COC(=O)c1ccc(Cl)c(-c2ccc3[nH]nc(NC(=O)[C@@H]4CCCNC4)c3c2)c1Cl [cpd 57, Methyl 2,4-dichloro-3-(3-{[(3R)-piperidin-3-ylcarbonyl]amino}-1H-indazol-5-yl)benzoate hydrochloride] | – | – | – | – | – | –
21 | 85 | CN1CCC(C(=O)Nc2n[nH]c3ccc(-c4c(Cl)cccc4Cl)cc23)CC1 [cpd 68, N-[5-(2,6-Dichlorophenyl)-1H-indazol-3-yl]-1-methylpiperidine-4-carboxamide] | – | – | – | – | – | –
